According to ChEMBL document CHEMBL2074540, “Induction of multidrug resistance protein 3 (mrp3) in vivo is independent of constitutive androstane receptor” (Drug Metab Dispos, 2003):

Columns and labels:
[1] = target: ATP-binding cassette sub-family C member 3 (Rattus norvegicus, UniProt O88563); assay: TP_TRANSPORTER: Branched DNA Assay in vivo, liver of WKY rat; type: functional, organism-based
[2] = target: ATP-binding cassette sub-family C member 3 (Mus musculus, UniProt B2RX12); assay: TP_TRANSPORTER: Branched DNA Assay in vivo, liver of mouse; type: functional, organism-based
Chain of ATP-binding cassette sub-family C member 3 (Mus musculus, UniProt B2RX12) (B2RX12 whole entry): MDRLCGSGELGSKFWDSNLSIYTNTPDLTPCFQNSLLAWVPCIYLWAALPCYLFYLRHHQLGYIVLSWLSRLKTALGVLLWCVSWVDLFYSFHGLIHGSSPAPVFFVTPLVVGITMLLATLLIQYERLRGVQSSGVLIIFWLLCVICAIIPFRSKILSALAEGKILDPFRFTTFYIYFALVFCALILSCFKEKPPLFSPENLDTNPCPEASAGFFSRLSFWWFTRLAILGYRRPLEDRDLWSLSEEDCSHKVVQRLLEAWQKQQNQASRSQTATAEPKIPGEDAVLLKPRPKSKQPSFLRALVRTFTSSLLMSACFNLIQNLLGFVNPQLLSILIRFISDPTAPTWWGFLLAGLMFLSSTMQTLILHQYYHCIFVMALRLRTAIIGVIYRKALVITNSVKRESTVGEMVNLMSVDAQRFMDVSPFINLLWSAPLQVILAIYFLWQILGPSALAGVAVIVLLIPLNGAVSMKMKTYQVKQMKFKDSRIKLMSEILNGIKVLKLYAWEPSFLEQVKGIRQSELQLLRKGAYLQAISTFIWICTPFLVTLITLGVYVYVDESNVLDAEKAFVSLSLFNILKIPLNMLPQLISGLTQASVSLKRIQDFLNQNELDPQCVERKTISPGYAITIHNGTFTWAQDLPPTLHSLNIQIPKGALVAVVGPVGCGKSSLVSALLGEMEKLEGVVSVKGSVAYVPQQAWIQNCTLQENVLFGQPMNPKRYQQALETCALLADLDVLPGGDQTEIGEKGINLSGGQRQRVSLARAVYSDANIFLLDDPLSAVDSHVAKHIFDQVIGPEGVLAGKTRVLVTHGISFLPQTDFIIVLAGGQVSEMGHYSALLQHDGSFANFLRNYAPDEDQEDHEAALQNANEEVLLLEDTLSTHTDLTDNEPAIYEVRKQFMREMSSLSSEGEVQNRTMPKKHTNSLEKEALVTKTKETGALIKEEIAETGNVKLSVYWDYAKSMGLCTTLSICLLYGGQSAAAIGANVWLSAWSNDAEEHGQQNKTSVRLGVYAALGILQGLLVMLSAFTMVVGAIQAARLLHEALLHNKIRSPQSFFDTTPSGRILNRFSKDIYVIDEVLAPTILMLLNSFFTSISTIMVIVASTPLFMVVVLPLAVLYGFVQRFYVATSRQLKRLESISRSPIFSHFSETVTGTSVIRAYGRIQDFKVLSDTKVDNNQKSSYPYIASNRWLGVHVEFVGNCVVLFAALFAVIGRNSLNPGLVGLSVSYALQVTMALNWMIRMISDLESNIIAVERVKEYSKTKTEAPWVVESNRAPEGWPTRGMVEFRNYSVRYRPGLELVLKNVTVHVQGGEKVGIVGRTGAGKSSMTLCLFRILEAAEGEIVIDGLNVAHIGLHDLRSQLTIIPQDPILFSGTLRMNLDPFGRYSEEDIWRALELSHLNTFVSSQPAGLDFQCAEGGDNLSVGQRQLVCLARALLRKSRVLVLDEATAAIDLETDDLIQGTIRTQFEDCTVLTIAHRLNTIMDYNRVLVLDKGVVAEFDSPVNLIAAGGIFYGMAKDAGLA

Chain of ATP-binding cassette sub-family C member 3 (Rattus norvegicus, UniProt O88563) (O88563 whole entry): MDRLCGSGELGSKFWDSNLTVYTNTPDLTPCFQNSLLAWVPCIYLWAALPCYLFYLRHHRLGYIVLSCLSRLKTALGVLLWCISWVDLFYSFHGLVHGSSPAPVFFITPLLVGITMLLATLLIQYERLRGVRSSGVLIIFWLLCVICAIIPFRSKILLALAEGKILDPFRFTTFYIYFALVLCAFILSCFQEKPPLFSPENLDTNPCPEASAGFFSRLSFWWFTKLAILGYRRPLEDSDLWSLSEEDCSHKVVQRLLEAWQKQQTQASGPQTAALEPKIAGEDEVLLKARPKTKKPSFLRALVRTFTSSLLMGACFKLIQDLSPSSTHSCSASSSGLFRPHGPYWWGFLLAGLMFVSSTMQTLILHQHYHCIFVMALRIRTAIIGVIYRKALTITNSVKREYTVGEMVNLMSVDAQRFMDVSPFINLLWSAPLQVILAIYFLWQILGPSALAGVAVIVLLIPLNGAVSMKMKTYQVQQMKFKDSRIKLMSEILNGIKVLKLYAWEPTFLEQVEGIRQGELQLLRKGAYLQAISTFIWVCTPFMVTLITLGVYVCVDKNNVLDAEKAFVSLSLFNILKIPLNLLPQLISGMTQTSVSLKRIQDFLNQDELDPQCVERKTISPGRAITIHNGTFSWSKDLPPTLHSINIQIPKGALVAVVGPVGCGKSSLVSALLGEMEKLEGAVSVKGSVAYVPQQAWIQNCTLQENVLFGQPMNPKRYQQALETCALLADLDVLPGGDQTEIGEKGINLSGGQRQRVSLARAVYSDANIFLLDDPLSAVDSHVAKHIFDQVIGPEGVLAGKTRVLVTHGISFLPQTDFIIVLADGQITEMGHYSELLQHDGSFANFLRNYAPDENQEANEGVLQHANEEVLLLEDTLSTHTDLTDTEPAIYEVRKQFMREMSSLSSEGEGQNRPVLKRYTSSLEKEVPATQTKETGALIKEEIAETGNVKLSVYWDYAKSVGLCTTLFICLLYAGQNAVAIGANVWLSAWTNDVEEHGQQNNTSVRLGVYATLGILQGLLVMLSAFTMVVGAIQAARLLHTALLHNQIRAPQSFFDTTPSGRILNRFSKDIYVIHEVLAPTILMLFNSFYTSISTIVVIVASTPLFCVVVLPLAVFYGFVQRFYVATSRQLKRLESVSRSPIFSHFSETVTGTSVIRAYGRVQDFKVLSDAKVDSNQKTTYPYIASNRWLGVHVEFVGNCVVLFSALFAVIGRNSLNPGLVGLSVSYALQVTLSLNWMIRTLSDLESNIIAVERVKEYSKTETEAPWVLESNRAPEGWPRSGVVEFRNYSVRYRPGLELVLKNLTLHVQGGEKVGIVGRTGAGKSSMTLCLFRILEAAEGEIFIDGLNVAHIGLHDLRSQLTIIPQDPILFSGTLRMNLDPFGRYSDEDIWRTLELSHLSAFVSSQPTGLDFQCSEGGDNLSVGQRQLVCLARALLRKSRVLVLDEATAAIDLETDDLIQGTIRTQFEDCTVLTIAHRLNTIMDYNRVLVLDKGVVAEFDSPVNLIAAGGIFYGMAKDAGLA

SMILES	Activity [1]	Activity [2]
c1ccc([C@H]2O[C@@H]2c2ccccc2)cc1 (relative stereo)	inducer []	inducer []
C=CCSCC=C [DIALLYL SULFIDE]	inducer []	inducer []
Cc1c(-c2cnccn2)ssc1=S [OLTIPRAZ]	inducer []	inducer []
CCC1(c2ccccc2)C(=O)NC(=O)NC1=O [PHENOBARBITAL]	inducer []	inducer []
